We go through 16 compounds from patent publication US20080050319A1, “Benzylidene-Alpha-Dicarbonyl Compounds as Novel Uv Absorbers” (SYMRISE GMBH & CO. KG, priority 2004, published 2008).

What all share (type): physicochemical
Series [1] can be described thus: Photostability test with Suntester, HPLC analysis of UV filter mixtures. As for the experimental part:
Photostability tests were carried out with a Suntester from Heräus. The irradiation intensity in these was 80 W/m^2, based on the UV range of 290-400 nm. The irradiation time was 4 h in total, the photodegradation of the UV filters being measured by HPLC analyses after an irradiation time of 2 and 4 h. The irradiations of the UV filter mixtures were carried out in an isopropyl myristate solution. The percentage values relate to the value measured without irradiation (decrease in the concentration).

Series [2] is described as follows: UV absorption properties (extinction). The arrangement: unit not given here. The source says: EXAMPLES FOR THE PREPARATION AND THE ABSORPTION PROPERTIES
Series [3] is described as follows: Solubility in cosmetic oils. To be noted: per cent by weight. An excerpt: Examples of Solubility (In Per Cent By Weight)
(data in per cent by weight)

Where [4] appears, read: 2 h, Experiment 1: 3% OMC + 1% DMDBM + 2% A1 in isopropyl myristate.
[5] abbreviates: 2 h, Experiment 2: 3% OMC + 1% DMDBM + 2% A2 in isopropyl myristate.
Setting [6] is: 2 h, Experiment 3: 3% OMC + 1% DMDBM + 2% A3 in isopropyl myristate.
[7] abbreviates: 2 h, Experiment 4: 3% OMC + 1% DMDBM + 2% B1 in isopropyl myristate.
Setting [8] is: 2 h, Experiment 5: 3% OMC + 1% DMDBM + 2% B2 in isopropyl myristate.
Setting [9] is: 2 h, Experiment 6: 3% OMC + 1% DMDBM + 2% B3 in isopropyl myristate.
Where [10] appears, read: 2 h irradiation, 80 W/m2, reference mixture 3% OMC + 1% DMDBM in isopropyl myristate.
Setting [11] is: 4 h, Experiment 1: 3% OMC + 1% DMDBM + 2% A1 in isopropyl myristate.
Where [12] appears, read: 4 h, Experiment 2: 3% OMC + 1% DMDBM + 2% A2 in isopropyl myristate.
Where [13] appears, read: 4 h, Experiment 3: 3% OMC + 1% DMDBM + 2% A3 in isopropyl myristate.
[14] abbreviates: 4 h, Experiment 4: 3% OMC + 1% DMDBM + 2% B1 in isopropyl myristate.
The mark [15] stands for this setting: 4 h, Experiment 5: 3% OMC + 1% DMDBM + 2% B2 in isopropyl myristate.
The mark [16] stands for this setting: 4 h, Experiment 6: 3% OMC + 1% DMDBM + 2% B3 in isopropyl myristate.
Where [17] appears, read: 4 h irradiation, 80 W/m2, reference mixture 3% OMC + 1% DMDBM in isopropyl myristate.

Regarding `COc1ccc(C(=O)CC(=O)c2ccc(C(C)(C)C)cc2)cc1` [DMDBM, 4-dimethylethyl-4′-methoxydibenzoylmethane], the “photodegradation (decrease in the concentration)” value stood at 24% in series [1] (setting [4]); 20% in series [1] (setting [5]); 20% in series [1] (setting [6]); 27% in series [1] (setting [7]); 27% in series [1] (setting [8]); 27% in series [1] (setting [9]). The “photodegradation (decrease in the concentration)” value was found to be 67% in series [1] (setting [10]); 38% in series [1] (setting [11]); 28% in series [1] (setting [12]); 28% in series [1] (setting [13]); 48% in series [1] (setting [14]); 60% in series [1] (setting [15]). Moreover, the entries for the “photodegradation (decrease in the concentration)” value in series [1] (setting [16]) and in series [1] (setting [17]) were 52% and 87%, respectively.
As for `COc1ccc(/C=C(/C(=O)OC(C)C)C(=O)c2ccccc2)cc1` [Example 1], the Extinction in series [2] (at 316 nm) is 640. Moreover, in series [3], the “Solubility in Isopropyl myristate” value is reported as above 10%, the “Solubility in Miglyol -812” value was above 10% and the “Solubility in Witconol-TN” value is reported as above 10%.
`CCCOC(=O)/C(=C/c1ccc(OC)cc1)C(=O)c1ccccc1` [Example 2] displayed an Extinction in series [2] (at 316 nm) of 660. In series [3], the “Solubility in Isopropyl myristate” value is given as above 10%, the “Solubility in Miglyol -812” value is listed as above 10% and the “Solubility in Witconol-TN” value is above 10%.
For the compound `COc1ccc(/C=C(/C(=O)OCC(C)C)C(=O)c2ccccc2)cc1` [Example 3], in series [2] (at 316 nm), the Extinction is recorded as 640. Also, in series [3], the “Solubility in Isopropyl myristate” value is given as above 20%, the “Solubility in Miglyol -812” value is listed as above 20% and the “Solubility in Witconol-TN” value is above 20%.
As for `CCCCOC(=O)/C(=C/c1ccc(OC)cc1)C(=O)c1ccccc1` [Example 4], the Extinction in series [2] (at 316 nm) amounted to 660. In series [1] (setting [4]), the “photodegradation (decrease in the concentration)” value amounted to 0%. In addition, in series [1] (setting [11]), the “photodegradation (decrease in the concentration)” value turned out to be 0%. In series [1] (in mixture with OMC and DMDBM, compared with the comparison measurement), the “photostability (in words)” value is “outstanding photostability”. Besides, in series [3], the “Solubility in Isopropyl myristate” value is above 20%, the “Solubility in Miglyol -812” value was above 20% and the “Solubility in Witconol-TN” value is given as above 20%.
Consider `COc1ccc(/C=C(/C(=O)OCCC(C)C)C(=O)c2ccccc2)cc1` [Example 5], for which, in series [2] (at 316 nm), the Extinction worked out at 630. Moreover, in series [3], the “Solubility in Isopropyl myristate” value was above 20%, the “Solubility in Miglyol -812” value is above 20% and the “Solubility in Witconol-TN” value was above 20%.
Consider `CCOC(=O)/C(=C/c1ccc(OC)cc1)C(=O)C1CCCCC1` [Example 6], for which, in series [2] (at 316 nm), the Extinction is on record as 700.
In turn, `CCOC(=O)/C(=C/c1ccc(C)cc1)C(=O)c1ccccc1` [Example 7] registered an Extinction in series [2] (at 292 nm) of 690.
`COc1ccc(/C=C(/C(C)=O)C(=O)c2ccccc2)cc1` [Example 8]: the Extinction in series [2] (at 323 nm, pure Z isomer) is reported as 816.
The compound `CCOC(=O)/C(=C/c1ccc(OC)cc1)C(=O)c1ccc(C)cc1` [Example 9] registered an Extinction in series [2] (at 316 nm) of 660.
As for `CCOC(=O)/C(=C/c1ccc(OC)cc1)C(=O)c1ccccc1` [Example A2], the “photodegradation (decrease in the concentration)” value in series [1] (setting [6]) and in series [1] (setting [13]) was 0% throughout.
As for `COc1ccc(/C=C(/C(C)=O)C(=O)c2ccccc2)cc1` [Example A2], the “photodegradation (decrease in the concentration)” value in series [1] (setting [5]) is 3%. The “photodegradation (decrease in the concentration)” value in series [1] (setting [12]) amounted to 3%. Moreover, in series [3], the “Solubility in Isopropyl myristate” value is on record as below 10%, the “Solubility in Miglyol -812” value is recorded as below 10% and the “Solubility in Witconol-TN” value is listed as below 10%.
On to `CCOC(=O)/C(=C/c1ccc(OC)cc1)C(=O)c1ccccc1` [Example A3], for which, in series [3], the “Solubility in Isopropyl myristate” value was above 20%, the “Solubility in Miglyol -812” value is above 20% and the “Solubility in Witconol-TN” value was above 20%.
Consider `CCOC(=O)C(=Cc1ccc(OC)cc1)C(=O)OCC` [Example B2], for which the results for the “photodegradation (decrease in the concentration)” value in series [1] (setting [8]) and in series [1] (setting [15]) were 2% and 7%, respectively.
Consider `COc1ccc(C=C(C(C)=O)C(C)=O)cc1` [Example B3], for which the “photodegradation (decrease in the concentration)” value in series [1] (setting [9]) is reported as 0%; in series [1] (setting [16]), 8%.
Regarding `CCCCC(CC)COC(=O)C=Cc1ccc(OC)cc1` (stereo not drawn) [OMC, octyl methoxycinnamate], the “photodegradation (decrease in the concentration)” value in series [1] (setting [4]) amounted to 12%; in series [1] (setting [5]), 12%; in series [1] (setting [6]) it was 11%; in series [1] (setting [7]) it was 11%; in series [1] (setting [8]), 15%; in series [1] (setting [9]), 13%. Further, the “photodegradation (decrease in the concentration)” value was 58% in series [1] (setting [10]); 17% in series [1] (setting [11]); 17% in series [1] (setting [12]); 17% in series [1] (setting [13]); 18% in series [1] (setting [14]); 30% in series [1] (setting [15]). In addition, the “photodegradation (decrease in the concentration)” value in series [1] (setting [16]) is reported as 25%; in series [1] (setting [17]), 76%.
